How the values were obtained:
Solubility in water = format: physicochemical
From the text: INGREZZA contains valbenazine, present as valbenazine ditosylate salt, with the chemical name, L-Valine, (2R,3R,11bR)-1,3,4,6,7,11b-hexahydro-9,10-dimethoxy-3-(2-methylpropyl)-2H-benzo[a]quinolizin-2-yl ester, 4-methylbenzenesulfonate (1:2). […] Its molecular formula is C38H54N2O10S2, and its molecular weight is 762.97/mol (ditosylate salt) with the following structure: […]

[1] = Phase 2 and 3 controlled studies and long-term treatment in adults with tardive dyskinesia: Parkinson-like adverse events; format: in vivo, human
From the text: In the Phase 2 and 3 controlled studies in adults with tardive dyskinesia (treatment up to 6 weeks), the incidence of Parkinson-like adverse events (AEs) was 3% (vs. <1% for placebo) and 4% during long-term treatment with valbenazine (up to 48 weeks).

solubility in water (Solubility in water)	SMILES	serious Parkinson-like AEs ([1]; NBI clinical studies in tardive dyskinesia patients)	incidence of Parkinson-like adverse events (AEs) ([1]; Phase 2 and 3 controlled studies, adults with tardive dyskinesia, treatment up to 6 weeks, placebo <1%) [%]	incidence of Parkinson-like adverse events (AEs) during long-term treatment ([1]; long-term treatment up to 48 weeks) [%]
slightly soluble	COc1cc2c(cc1OC)[C@H]1C[C@@H](OC(=O)[C@@H](N)C(C)C)[C@H](CC(C)C)CN1CC2 [Valbenazine ditosylate, L-Valine, (2R,3R,11bR)-1,3,4,6,7,11b-hexahydro-9,10-dimethoxy-3-(2-methylpropyl)-2H-benzo[a]quinolizin-2-yl ester, 4-methylbenzenesulfonate (1:2)]			
	COc1cc2c(cc1OC)[C@H]1C[C@@H](OC(=O)[C@@H](N)C(C)C)[C@H](CC(C)C)CN1CC2 [valbenazine, (S)-2-amino-3-methyl-butyric acid (2R, 3R,11bR)-3-isobutyl-9,10-dimethoxy-1,3,4,6,7,11b-hexahydro-2H-pyrido[2,1-a]isoquinolin-2-yl ester]	No serious Parkinson-like AEs were reported	3	4

From patent US20220040169A1, “Methods for the Administration of Certain VMAT2 Inhibitors” (Neurocrine Biosciences, Inc., priority 2019, published 2022)
